ChEMBL document CHEMBL2074342, “Kinetic analysis of rhodamines efflux mediated by the multidrug resistance protein (MRP1)” (Biophys J, 2003)

These molecules were tested against Multidrug resistance-associated protein 1 (Homo sapiens, UniProt P33527) (assay: TP_TRANSPORTER: intracellular accumulation in MRP1-expressing GLC4/ADR cell). Conditions: glc-4/adr.
Type: functional, cell-based

Sequence of Multidrug resistance-associated protein 1 (P33527 whole entry): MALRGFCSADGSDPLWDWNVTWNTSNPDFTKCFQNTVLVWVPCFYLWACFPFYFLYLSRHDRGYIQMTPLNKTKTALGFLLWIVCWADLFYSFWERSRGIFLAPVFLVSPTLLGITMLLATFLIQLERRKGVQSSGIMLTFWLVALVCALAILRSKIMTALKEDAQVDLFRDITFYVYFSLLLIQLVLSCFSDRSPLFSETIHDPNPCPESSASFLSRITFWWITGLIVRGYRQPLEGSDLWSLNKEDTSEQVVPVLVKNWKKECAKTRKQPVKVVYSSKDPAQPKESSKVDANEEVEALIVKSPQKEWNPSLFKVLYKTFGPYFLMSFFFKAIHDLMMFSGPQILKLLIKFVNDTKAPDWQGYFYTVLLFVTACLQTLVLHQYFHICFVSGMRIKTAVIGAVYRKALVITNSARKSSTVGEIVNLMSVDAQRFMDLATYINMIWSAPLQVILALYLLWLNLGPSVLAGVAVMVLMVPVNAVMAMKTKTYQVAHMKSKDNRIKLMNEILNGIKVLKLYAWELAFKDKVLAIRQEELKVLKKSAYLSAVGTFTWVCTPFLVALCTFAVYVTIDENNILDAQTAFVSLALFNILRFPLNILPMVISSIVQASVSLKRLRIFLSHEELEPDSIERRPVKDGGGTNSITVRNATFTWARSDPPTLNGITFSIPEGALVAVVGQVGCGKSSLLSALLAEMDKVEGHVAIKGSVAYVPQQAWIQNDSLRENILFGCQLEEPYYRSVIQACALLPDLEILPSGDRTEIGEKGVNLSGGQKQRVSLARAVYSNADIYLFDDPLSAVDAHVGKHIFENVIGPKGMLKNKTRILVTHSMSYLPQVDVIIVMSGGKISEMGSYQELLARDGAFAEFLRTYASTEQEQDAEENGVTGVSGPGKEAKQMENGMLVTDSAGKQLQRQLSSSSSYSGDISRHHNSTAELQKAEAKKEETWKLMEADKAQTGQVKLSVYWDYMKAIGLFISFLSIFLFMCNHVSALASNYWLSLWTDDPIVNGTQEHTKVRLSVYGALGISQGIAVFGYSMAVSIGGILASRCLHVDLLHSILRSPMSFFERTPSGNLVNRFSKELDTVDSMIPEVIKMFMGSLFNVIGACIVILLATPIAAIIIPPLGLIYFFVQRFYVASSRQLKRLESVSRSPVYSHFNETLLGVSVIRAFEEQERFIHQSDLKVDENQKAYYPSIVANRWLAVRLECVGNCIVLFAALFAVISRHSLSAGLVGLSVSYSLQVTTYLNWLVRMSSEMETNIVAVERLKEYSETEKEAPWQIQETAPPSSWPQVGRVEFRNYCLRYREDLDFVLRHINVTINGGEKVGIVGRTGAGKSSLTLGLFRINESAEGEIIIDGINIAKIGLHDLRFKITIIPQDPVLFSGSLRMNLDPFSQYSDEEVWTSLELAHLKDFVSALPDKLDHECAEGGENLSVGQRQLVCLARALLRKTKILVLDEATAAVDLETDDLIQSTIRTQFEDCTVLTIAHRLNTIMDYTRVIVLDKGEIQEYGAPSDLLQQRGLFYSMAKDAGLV

| Activity | Compound |
| --- | --- |
| substrate [+] | CCOC(=O)c1ccccc1-c1c2ccc(=[N+](C)C)cc-2oc2cc(N(C)C)ccc12 [RHODAMINE I] |
| substrate [+] | CC/N=c1\cc2oc3cc(NCC)c(C)cc3c(-c3ccccc3C(=O)OCC)c-2cc1C.Cl [RHODAMINE 6G HYDROCHLORIDE] |
| substrate [+] | COC(=O)c1ccccc1-c1c2ccc(=[N+](C)C)cc-2oc2cc(N(C)C)ccc12 [RHODAMINE II] |

| Compound | Activity |
| --- | --- |
| CN(C)c1ccc2c(-c3ccccc3C(=O)[O-])c3ccc(N(C)C)cc3[o+]c2c1 [TETRAMETHYLRHODAMINE] | substrate [+] |
